Measured values: US7999004B2, “Compounds having estrogenic activity” (National Taiwan University, priority 2007, dated 2011)
Where two headings read alike, the source gives them in different places.

Key:
GAL4-hERα = target: T1, GAL4-hERα (Homo sapiens, UniProt P03372); test: Transactivation assay for estrogen activity, GAL4-hERα LBD chimeric receptor with (UAS)4-alkaline phosphatase reporter in CHO-K1 cells; format: cell-based; conditions: for EC50: CHO-K1 cells, ALP reporter, read-out: EC50 value for ERα (converted); for maximal activation of ERα: at the concentration of maximal activation (compound 2: 40 μg/mL; compound 6: 20 μg/mL); for ALP activity with increasing concentration, GAL4-hERα / concentration at which the maximal activation of ERα is achieved: dose response curve
T1 construct: GAL4hERα (or β) LBD chimeric receptors; expressed in transfected cells; host or cells: CHO-K1 (CCRC 60006), transient co-transfection with Fugene 6
T1 sequence (P03372 311-547 limits assumed): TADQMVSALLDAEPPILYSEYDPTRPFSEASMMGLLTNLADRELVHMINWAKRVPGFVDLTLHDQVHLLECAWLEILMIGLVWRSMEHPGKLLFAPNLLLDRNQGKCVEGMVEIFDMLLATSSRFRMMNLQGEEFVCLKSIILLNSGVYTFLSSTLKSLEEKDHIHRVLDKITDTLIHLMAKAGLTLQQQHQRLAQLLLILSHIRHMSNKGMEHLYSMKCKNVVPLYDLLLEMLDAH
Description: (§1) To evaluate the estrogen activity, the pBKCMV plasmid containing the gene of GAL4hERα (or β) LBD chimeric receptors was co-transfected with a plasmid containing the (UAS)4-alkaline phosphatase reporter gene into CHO-K1 cells. When a test sample was reacted with ER, the GAL4 was mediated to bind specifically with the UAS upstream of the reporter gene so as to activate the expression of the reporter gene, i.e. the alkaline phosphatase (ALP) enzyme. By measuring the alkaline phosphatase activity, we can detect the estrogen activity of the sample.
(§2) Cells were grown to confluence and seeded into 96-well microplates for a day. Before transfection, the two plasmids DNA in equal proportions were added to a mixture of the Fugene 6 transfection reagent and Ham's F12 medium, and then incubated for 20 min. At transfection, the fugene 6-DNA mixture was then added to the cells after the original FBS containing medium was removed.
(§3) After a 2-day culture, an aliquot of the medium was taken for the analysis of alkaline phosphatase activity.

GAL4-hERβ = target: T2, GAL4-hERβ (Homo sapiens, UniProt Q92731); test: Transactivation assay for estrogen activity, GAL4-hERβ LBD chimeric receptor with (UAS)4-alkaline phosphatase reporter in CHO-K1 cells; format: cell-based; conditions: for EC50: CHO-K1 cells, ALP reporter, read-out: EC50 value for ERβ (converted); for maximal activation of ERβ: at the concentration of maximal activation (compound 2: 40 μg/mL; compound 6: 20 μg/mL); for ALP activity with increasing concentration, GAL4-hERβ / concentration at which the maximal activation of ERβ is achieved: dose response curve
T2 construct: GAL4hERα (or β) LBD chimeric receptors; expressed in transfected cells; host or cells: CHO-K1 (CCRC 60006), transient co-transfection with Fugene 6
T2 sequence (Q92731 264-498 limits assumed): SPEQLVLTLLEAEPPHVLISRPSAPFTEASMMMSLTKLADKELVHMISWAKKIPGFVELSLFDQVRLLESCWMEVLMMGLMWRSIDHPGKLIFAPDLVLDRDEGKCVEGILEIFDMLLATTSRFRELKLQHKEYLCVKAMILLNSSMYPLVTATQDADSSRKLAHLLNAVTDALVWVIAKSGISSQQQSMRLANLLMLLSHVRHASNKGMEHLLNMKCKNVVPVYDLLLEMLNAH
Description: as §1, §2, §3

[1] = three concentrations, fraction with compound 5

EC50 (GAL4-hERα)	EC50 (GAL4-hERα; value in parentheses)	EC50 (GAL4-hERβ)	EC50 (GAL4-hERβ; value in parentheses)	maximal activation of ERα (GAL4-hERα)	ALP activity with increasing concentration, GAL4-hERα (GAL4-hERα)	concentration at which the maximal activation of ERα is achieved (GAL4-hERα)	concentration at which the maximal activation of ERα is achieved (GAL4-hERα; value in parentheses)	maximal activation of ERβ (GAL4-hERβ)	ALP activity with increasing concentration, GAL4-hERβ (GAL4-hERβ)	concentration at which the maximal activation of ERβ is achieved (GAL4-hERβ)	concentration at which the maximal activation of ERβ is achieved (GAL4-hERβ; value in parentheses)	SMILES	ALP activity, activation of GAL4-hERα (GAL4-hERα; [1])	ALP activity, activation of GAL4-hERβ (GAL4-hERβ; [1])
10.7 µM	10.8 µM	7.36 µM	7.4 µM	3.68 fold	dose-dependent increase	40 µg/mL	50.34 µM	3.79 fold	dose-dependent increase	40 µg/mL	50.34 µM	COc1c(O)c(C)c2c(c1OC)O[C@](C)(CC/C=C(\C)CC/C=C(\C)CC/C=C(\C)CC/C=C(\C)CC/C=C(\C)CC/C=C(\C)CC/C=C(\C)CCC=C(C)C)C=C2 [compound 2, hydro-Q9 chromene]		
51 µM	13.3 µM	1.06 µM	1.06 µM		dose-dependent increase	20 µg/mL	25.2 µM		dose-dependent increase	20 µg/mL	25.2 µM	COC1=C(OC)C(=O)C(C/C=C(\C)CC/C=C(\C)CC/C=C(\C)CC/C=C(\C)CC/C=C(\C)CC/C=C(\C)CC/C=C(\C)CC/C=C(\C)CCC=C(C)C)=C(C)C1=O [compound 3, coenzyme Q9]		
12.7 µM	12.7 µM	3.19 µM	3.2 µM	2.91 fold	dose-dependent increase	20 µg/mL	26.64 µM	3.26 fold	dose-dependent increase	20 µg/mL	26.64 µM	CC(C)=CCC/C(C)=C/CC/C(C)=C/CC/C(C)=C/CC/C(C)=C/CC/C(C)=C/CC/C(C)=C/CC/C(C)=C/CC[C@]1(C)CCc2cc(O)c(C)c(C)c2O1 [compound 6, γ-tocopherol-9]		

The remaining lines, values behind:

SMILES	EC50 (GAL4-hERα)	EC50 (GAL4-hERα; value in parentheses)	EC50 (GAL4-hERβ)	EC50 (GAL4-hERβ; value in parentheses)	maximal activation of ERα (GAL4-hERα)	ALP activity with increasing concentration, GAL4-hERα (GAL4-hERα)	concentration at which the maximal activation of ERα is achieved (GAL4-hERα)	concentration at which the maximal activation of ERα is achieved (GAL4-hERα; value in parentheses)	maximal activation of ERβ (GAL4-hERβ)	ALP activity with increasing concentration, GAL4-hERβ (GAL4-hERβ)	concentration at which the maximal activation of ERβ is achieved (GAL4-hERβ)	concentration at which the maximal activation of ERβ is achieved (GAL4-hERβ; value in parentheses)	ALP activity, activation of GAL4-hERα (GAL4-hERα; [1])	ALP activity, activation of GAL4-hERβ (GAL4-hERβ; [1])
Cc1c(C)c2c(c(C)c1O)CC[C@@](C)(CCC[C@H](C)CCC[C@H](C)CCCC(C)C)O2 [compound 1, RRR-α-tocopherol]	2.51 µM	2.5 µM	9.19 µM	9.2 µM										
COc1cc(/C=C/C(=O)OCC(O)CO)ccc1O (stereo not shown) [compound 5, 1-feruloyl glycerol]													significant increases in the ALP activity	significant increases in the ALP activity
